Where a SMILES comes first, the peptide text is derived from it. Where no end group is shown, it is not given here.
What was measured:
[1] = test system: Salmonella enterica serovar Typhimurium ATCC 14028; test: Killing kinetics assay (bactericidal activity) in the presence of biological fluids; type: cell-based; conditions: for reduction of the number of CFU: 10 μM peptide, 1 h incubation, 37°C
Method: Murine plasma obtained using 2% (v/v) Na-citrate as an anticoagulant, and serum were prepared and stored at -20°C until use. The bactericidal activity of Bac7(1-35) against Salmonella enterica serovar Typhimurium ATCC 14028 was determined by a killing kinetics assay. Mid-logarithmic phase S. enterica cultures were diluted in murine serum or plasma (66% v/v final concentration) or BSA (40 mg/mL) (Sigma) to give approximately 1 × 10^6 cells/ml, and incubated with 10 μM Bac7(1-35) in a shaking water bath at 37°C for different times. Samples were withdrawn, diluted and plated to allow colony counts.

[2] = test system: S. typhimurium ATCC 14028 infection in CBA/Ca mice; test: Mouse model of typhoid fever, survival; type: in vivo
Method: Inocula containing 10^2 CFU/mouse of S. enterica ATCC 14028, expected to result in 90-100% mortality in 4-6 days for Balb/c and 10-18 days for CBA/Ca, were prepared by diluting log-phase bacterial cultures in sterile PBS. Ten mice were infected intraperitoneally and monitored for survival over a 60-day period after infection. Test peptide (30 mg/kg) was injected via i.p. after bacterial challenge. The choice of dose was based on preliminary data obtained with lower doses (data not shown) and on results reported in the literature for structurally similar peptides. Control mice were given 0.2 ml of PBS. […] The analysis of survival curves was conducted using the Kaplan-Meyer method and successive statistical evaluation by the Logrank test. Significance of percentage differences among groups was assessed by using the Fisher exact test. Values of p < 0.05 were considered statistically significant.

[3] = 37°C, several days of incubation
Method: (§1) At different times, aliquots of samples were diluted 1:5 in sample buffer (12% SDS, 6% dithiothreitol, 40% glycerol, 0.05% bromophenol blue, 150 mM Tris-HCl, pH 7), incubated for 15 min at 60°C and analyzed on a 16% Tricine/SDS gel. Proteins were then blotted onto nitrocellulose membrane (Whatman), and incubated overnight with shaking at 4°C in 40 mM Tris-HCl, pH 7.5, 5% non-fat milk, 0.05% Tween 20, 200 mM NaCl (blocking solution). Samples were incubated for 90 min with 1:1000 rabbit anti-Bac7(1-35) IgG, diluted in blocking solution, followed by a HRP-conjugated anti-rabbit IgG (Sigma-Aldrich). The ECL detection system (GE Healthcare) was used to develop the Western blots.

in vitro = test: in vitro
Method: Bac7(1-35) peptide (50 μg) was incubated in 250 μL of PBS containing 25% (v/v) of murine serum or plasma at 37°C. At different time intervals (0, 1, 2, 4, 8 and 24 h), aliquots of 25 μL (corresponding to 5 μg of peptide) were added to 65 μL of cold 0.5% (v/v) TFA in H2O, kept on ice for 5 min and than centrifuged at 10.000 × g for 5 min. The LC-MS analysis of supernatants were carried out as described, using a standard curve to calculate the peptide concentration.

[4] = 37°C, Western blot
Method: as §1

[5] = test system: S. enterica ATCC 14028 in liver and spleen of CBA/Ca mice; test: Viable colony counts in murine liver and spleen homogenates; type: in vivo, mouse; conditions: 30 mg/kg i.p., 3 days post-inoculation
Method: Three days after bacterial infection, a group of 3 untreated and 3 peptide-treated mice were killed by cervical dislocation, and liver and spleen were removed. The organs were weighed, homogenized separately and dissolved in PBS. Suitable dilutions of 50 μL of the homogenate in PBS were plated in duplicate on Mueller-Hinton agar (Difco). The plates were then incubated at 37°C overnight to allow colony counts. Results are expressed as number of CFU/g of organ. This assay was repeated two fold.

Balb/c and CBA/Ca mice = test: In vivo toxicity after single i.p. injection; parameters: species or system mouse
Method: The in vivo toxicity of Bac7(1-35) was investigated by injecting mice via i.p. with increasing amounts of the peptide dissolved in apyrogen PBS (0.2 ml per mouse). The controls received the vehicle alone. Animal behavior and survival were monitored over a 14-day period.

[6] = test system: E. coli infection; S. typhimurium disease; parameters: method as in 2 sources, one per row (each row's own in cited_ref): ref 8 = [8]; PMID 12222961; doi:10.1007/s00018-002-8493-8; Otvos L The short proline-rich antibacterial peptide family Cell Mol Life Sci 2002 59 7 1138 1150 10.1007/s00018-002-8493-8 12222961 PMC11337521 ||| ref 22 = [22]; PMID 2934362; doi:10.1093/jac/16.5.615; Easmon CS Blowers A Ciprofloxacin treatment of systemic salmonella infection in sensitive and resistance mice J Antimicrob Chemother 1985 16 5 615 619 10.1093/jac/16.5.615 2934362; conditions: Balb/c mice; cited from earlier work
Method: As a first step to evaluate the therapeutic potential of Bac7(1-35), its in vivo toxicity was determined in Balb/c and CBA/Ca mice after injection via i.p. of increasing single peptide doses. […] For ... || The potential of Bac7(1-35) to protect mice from a bacterial challenge was tested by a mouse model of Salmonella infection. Infected mice develop a systemic disease characterized by rapid bacterial multiplication in the liver and spleen that resembles typhoid fever caused by Salmonella serovar Typhi in humans.

[7] = Antimicrobial activity of the labelled peptide (data not shown); type: cell-based
healthy animals / mice = conditions: i.v.; cited from earlier work

For `CC[C@H](C)[C@H](NC(=O)[C@H](CCCNC(=N)N)NC(=O)[C@@H](N)CCCNC(=N)N)C(=O)N[C@@H](CCCNC(=N)N)C(=O)N1CCC[C@H]1C(=O)N[C@@H](CCCNC(=N)N)C(=O)N1CCC[C@H]1C(=O)N1CCC[C@H]1C(=O)N[C@@H](CCCNC(=N)N)C(=O)N[C@@H](CC(C)C)C(=O)N1CCC[C@H]1C(=O)N[C@@H](CCCNC(=N)N)C(=O)N1CCC[C@H]1C(=O)N[C@@H](CCCNC(=N)N)C(=O)N1CCC[C@H]1C(=O)N[C@@H](CCCNC(=N)N)C(=O)N1CCC[C@H]1C(=O)N[C@@H](CC(C)C)C(=O)N1CCC[C@H]1C(=O)N[C@@H](Cc1ccccc1)C(=O)N1CCC[C@H]1C(=O)N[C@@H](CCCNC(=N)N)C(=O)N1CCC[C@H]1C(=O)NCC(=O)N1CCC[C@H]1C(=O)N[C@@H](CCCNC(=N)N)C(=O)N1CCC[C@H]1C(=O)N[C@H](C(=O)N1CCC[C@H]1C(=O)N[C@@H](CCCNC(=N)N)C(=O)N1CCC[C@H]1C(=O)N[C@@H](CC(C)C)C(=O)N1CCC[C@H]1C(=O)N[C@@H](Cc1ccccc1)C(=O)N1CCC[C@H]1C(=O)O)[C@@H](C)CC` [Bac7(1-35)] (H-RRIRPRPPRLPRPRPRPLPFPRPGPRPIPRPLPFP-OH; N-terminus and C-terminus assumed), the “reduction of the number of CFU” value ([1]; in the absence of serum/plasma) was 2.5 log, the “reduction of the number of CFU” value ([1]; with 66% murine serum or plasma, approx. 1 × 10^6 cells/ml, three independent determinations in triplicate) was 0.5-1 log and the “bactericidal activity upon addition of BSA” value ([1]; 40 mg/mL BSA, data not shown) was “did not change”. For the same molecule, the “peptide concentration giving a CFU reduction comparable to 10 μM in serum/plasma” value ([1]; without the presence of plasma/serum, 1 h) was 1 µM, the mean survival time ([2]; 30 mg/kg i.p. after i.p. challenge with 1 × 10^2 CFU/mouse, 60 days monitoring, control 10 days, p = 0.01) was 24.5 days and the “infected mice completely cured (survival)” value ([2]; 30 mg/kg i.p., 60 days, untreated 0%, p = 0.04) was 36%. The “peptide degradation in PBS alone” value [3] was “no peptide degradation was observed”, the “degradation process in plasma relative to serum” value (in vitro; 25% (v/v) murine plasma in PBS, 37°C, LC-MS) was “slower in plasma than in serum” and the “state of the peptide after 8 h” value (in vitro; 25% (v/v) murine serum in PBS, 37°C, 8 h incubation, LC-MS) was “almost completely degraded”. For the same molecule, the metabolised at 1 h, 200 μg/mL (in vitro; mouse, 25% (v/v) murine serum in PBS) was 10%, the “degradation in plasma relative to serum (immunodetection)” value ([4]; 25% (v/v) murine plasma in PBS, up to 24 h) was “slower” and the “band corresponding to intact peptide (immunodetection)” value ([4]; 25% (v/v) murine serum in PBS, 24 h incubation, 120 μg in 200 μL) was “disappeared”. For the same molecule, the “fraction of animals with bacteria undetectable in both spleen and liver” value [5] was 1/3, the “number of viable bacterial cells in liver and spleen homogenates” value ([5]; CBA/Ca mice) was “decreased significantly” and the “dose at which mice died” value (Balb/c and CBA/Ca mice; highest dose) was 150 mg/kg. For the same molecule, the “dose with no apparent toxic effect” value (Balb/c and CBA/Ca mice; monitored over 14 days) was “up to 75 mg/kg”.
For `O=C(O)c1cn(C2CC2)c2cc(N3CCNCC3)c(F)cc2c1=O` [ciprofloxacin], the “prevention of fatal S. typhimurium disease” value [6] is given as “failed to prevent”.
For “Bac7(1-35)-Alexa680: derivative of Bac7(1-35) fluorescently labelled with the dye Alexa680 via an added C-terminal cysteine (RRIRPRPPRLPRPRPRPLPFPRPGPRPIPRPLPFP-{C(Alexa Fluor 680 C2-maleimide)}; UniProt P19661 131-165, looked up, fragment)”, the “antimicrobial activity relative to the unlabelled peptide” value [7] was “comparable”.
For “Drosocin: insect proline-rich AMP (GKPRPYSPRPTSHPRPIRV; ends and bridges not checked; UniProt P36193 22-40, looked up)”, the “dose at which completely devoid of toxicity” value (healthy animals / mice) is listed as 100 mg/kg.
